According to paper PMC12408681, “Tail-less precursors in synthetic cannabinoid production: investigating a clandestine laboratory, seized samples, and CB1 activity” (Archives of Toxicology, 2025):
Several values for one entry are separate records, joined by “and”; a condition that tells them apart may be missing. Equal entries are not always repeated.

What was measured:
human CB1 [1] = biological target: T1, human CB1 (Homo sapiens, UniProt P21554); test: AequoScreen CB1 intracellular Ca2+ release assay; format: cell-based; design: host or cells: CHO-K1 (AequoZen recombinant cell line)
Target sequence in this assay (P21554 whole entry): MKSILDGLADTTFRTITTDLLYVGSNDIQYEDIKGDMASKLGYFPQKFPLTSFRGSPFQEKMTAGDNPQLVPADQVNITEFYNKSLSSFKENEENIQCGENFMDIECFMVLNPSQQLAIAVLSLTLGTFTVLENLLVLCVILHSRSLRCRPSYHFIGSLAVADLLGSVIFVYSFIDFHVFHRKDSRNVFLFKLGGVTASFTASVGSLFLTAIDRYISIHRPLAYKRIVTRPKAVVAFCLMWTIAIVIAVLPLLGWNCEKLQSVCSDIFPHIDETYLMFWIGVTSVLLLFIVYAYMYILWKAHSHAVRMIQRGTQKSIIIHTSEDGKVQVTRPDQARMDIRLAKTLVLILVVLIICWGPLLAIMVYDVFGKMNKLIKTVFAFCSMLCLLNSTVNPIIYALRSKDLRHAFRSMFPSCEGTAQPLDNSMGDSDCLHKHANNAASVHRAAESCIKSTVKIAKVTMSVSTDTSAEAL

human CB1 [2] = biological target: T1, human CB1; test: NanoBiT CB1 β-arrestin 2 recruitment assay; format: cell-based; design: expressed in transfected cells; details: for Efficacy (Emax) Mean Diff: CP55,940 as reference
Target sequence in this assay (P21554 whole entry): as above
Target sequence in this assay (P32121 whole entry partner): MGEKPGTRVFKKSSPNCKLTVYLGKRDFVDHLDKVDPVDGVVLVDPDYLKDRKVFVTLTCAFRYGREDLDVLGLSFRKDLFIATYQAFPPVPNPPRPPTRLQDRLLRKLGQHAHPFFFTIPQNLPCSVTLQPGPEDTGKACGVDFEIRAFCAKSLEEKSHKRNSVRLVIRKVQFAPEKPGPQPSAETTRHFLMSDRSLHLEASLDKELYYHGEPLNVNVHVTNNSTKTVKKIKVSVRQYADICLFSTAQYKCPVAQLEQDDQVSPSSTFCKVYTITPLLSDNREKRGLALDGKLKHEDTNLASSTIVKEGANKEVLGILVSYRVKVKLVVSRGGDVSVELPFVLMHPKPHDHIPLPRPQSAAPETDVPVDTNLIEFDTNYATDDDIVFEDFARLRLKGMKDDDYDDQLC

[3] = tested on: paclitaxel-induced peripheral neuropathy; design: method as in one study (reference not given); details: rats; ref one study (reference not given); cited from earlier work
[4] = Potency (EC50, nM) AequoScreen, Table 4, reference standards and mixtures, total SCRA concentration, n ≥ 3
[5] = Potency (EC50, nM) AequoScreen, Table 5, Ref (reference standard)
[6] = Table 4, reference standards and mixtures, total SCRA concentration
[7] = Table 5, Ref (reference standard)
[8] = Potency (EC50, nM) β-arrestin 2, Table 4, reference standards and precursor:final SCRA mixtures, total (combined) SCRA concentration, n ≥ 3
[9] = Potency (EC50, nM) β-arrestin 2, Table 5, Ref (reference standard)
[10] = Table 5, Ref (reference standard), read-out: Potency (EC50, nM) AequoScreen
[11] = Table 5, Ref (reference standard), read-out: Potency (EC50, nM) β-arrestin 2
[12] = vs 5% MDMB-4en-PINACA, only concentration of final product in mixture
[13] = vs 5% MDMB-4en-PINACA, total concentration of SCRAs in mixture
[14] = vs 25% MDMB-4en-PINACA, only concentration of final product in mixture
[15] = vs 25% MDMB-4en-PINACA, total concentration of SCRAs in mixture
[16] = vs 50% MDMB-4en-PINACA, only concentration of final product in mixture
[17] = vs 50% MDMB-4en-PINACA, total concentration of SCRAs in mixture
[18] = vs 75% MDMB-4en-PINACA, only concentration of final product in mixture
[19] = vs 75% MDMB-4en-PINACA, total concentration of SCRAs in mixture

## C=CCCCn1nc(C(=O)NC(C(=O)OC)C(C)(C)C)c2ccccc21 (stereo not shown) [MDMB-4en-PINACA, methyl 3,3-dimethyl-2-(1-(pent-4-en-1-yl)-1H-indazole-3-carboxamido)butanoate]
Human CB1 [1]; [4]
  EC50: 1.2 nM and 1.17 nM
Human CB1 [1]; [5]
  EC50: 1.89 nM
Human CB1 [1]; [6]
  Efficacy (% of JWH-018) Emax AequoScreen: 104 % of JWH-018
Human CB1 [1]; [7]
  Efficacy (% of JWH-018) Emax AequoScreen: 109 % of JWH-018
Human CB1 [2]; [8]
  EC50: 1.8 nM
Human CB1 [2]; [9]
  EC50: 1.8 nM
Human CB1 [2]; [6]
  Efficacy (% of CP55,940) Emax β-arrestin 2: 1088 % of CP55,940 and 1090 % of CP55,940
Human CB1 [2]; [7]
  Efficacy (% of CP55,940) Emax β-arrestin 2: 1090 % of CP55,940

## CCCCn1nc(C(=O)NC(C(N)=O)C(C)(C)C)c2ccccc21 (stereo not shown) [ADB-BUTINACA]
Human CB1 [1]; [4]
  EC50: 5.6 nM and 5.64 nM
Human CB1 [1]; [5]
  EC50: 7.27 nM
Human CB1 [1]; [6]
  Efficacy (% of JWH-018) Emax AequoScreen: 105 % of JWH-018
Human CB1 [1]; [7]
  Efficacy (% of JWH-018) Emax AequoScreen: 111 % of JWH-018
Human CB1 [2]; [8]
  EC50: 6.7 nM and 6.73 nM
Human CB1 [2]; [9]
  EC50: 5.65 nM
Human CB1 [2]; [6]
  Efficacy (% of CP55,940) Emax β-arrestin 2: 1282 % of CP55,940 and 1280 % of CP55,940
Human CB1 [2]; [7]
  Efficacy (% of CP55,940) Emax β-arrestin 2: 1330 % of CP55,940

## CCCCn1nc(C(=O)N[C@H](C(N)=O)C(C)(C)C)c2ccccc21 [100% ADB-BUTINACA]
Human CB1 [2]; vs 5% ADB-BUTINACA, only concentration of final product in mixture
  Efficacy (Emax) Mean Diff: 76.63
Human CB1 [2]; vs 5% ADB-BUTINACA, total concentration of SCRAs in mixture
  Efficacy (Emax) Mean Diff: 98.60
Human CB1 [2]; vs 25% ADB-BUTINACA, only concentration of final product in mixture
  Efficacy (Emax) Mean Diff: 52.66
Human CB1 [2]; vs 25% ADB-BUTINACA, total concentration of SCRAs in mixture
  Efficacy (Emax) Mean Diff: 66.35
Human CB1 [2]; vs 50% ADB-BUTINACA, only concentration of final product in mixture
  Efficacy (Emax) Mean Diff: 144.9
Human CB1 [2]; vs 50% ADB-BUTINACA, total concentration of SCRAs in mixture
  Efficacy (Emax) Mean Diff: 155.6
Human CB1 [2]; vs 75% ADB-BUTINACA, only concentration of final product in mixture
  Efficacy (Emax) Mean Diff: 60.28
Human CB1 [2]; vs 75% ADB-BUTINACA, total concentration of SCRAs in mixture
  Efficacy (Emax) Mean Diff: 70.25

## CCCCCn1cc(C(=O)c2cccc3ccccc23)c2ccccc21 [JWH-018, reference compound]
Human CB1 [1]; [6]
  Efficacy (% of JWH-018) Emax AequoScreen: 97.6 % of JWH-018
Human CB1 [1]; Table 4, reference standards and mixtures, total SCRA concentration, n ≥ 3, read-out: Potency (EC50, nM) AequoScreen
  EC50: 5.14 nM
Human CB1 [1]; [7]
  Efficacy (% of JWH-018) Emax AequoScreen: 99.8 % of JWH-018
Human CB1 [1]; [10]
  EC50: 13.5 nM
Human CB1 [2]; [6]
  Efficacy (% of CP55,940) Emax β-arrestin 2: 335 % of CP55,940
Human CB1 [2]; Table 4, reference standards and precursor:final SCRA mixtures, total (combined) SCRA concentration, n ≥ 3, read-out: Potency (EC50, nM) β-arrestin 2
  EC50: 9.55 nM
Human CB1 [2]; [7]
  Efficacy (% of CP55,940) Emax β-arrestin 2: 352 % of CP55,940
Human CB1 [2]; [11]
  EC50: 11 nM

## COC(=O)[C@@H](NC(=O)c1n[nH]c2ccccc12)C(C)(C)C [MDMB-INACA (ref)]
Human CB1 [1]; vs MDMB-INACA (seizure), CP55,940 as reference
  Efficacy (Emax) Mean Diff: 1.797
Human CB1 [2]; vs MDMB-INACA (seizure)
  Efficacy (Emax) Mean Diff: -144.0

## COC(=O)[C@@H](NC(=O)c1n[nH]c2ccccc12)C(C)(C)C [100% MDMB-INACA]
Human CB1 [1]; vs 5% MDMB-4en-PINACA, only concentration of final product in mixture, JWH-018 as reference
  Efficacy (Emax) Mean Diff: 2.037
Human CB1 [1]; vs 5% MDMB-4en-PINACA, total concentration of SCRAs in mixture, JWH-018 as reference
  Efficacy (Emax) Mean Diff: 6.744
Human CB1 [1]; vs 25% MDMB-4en-PINACA, only concentration of final product in mixture, JWH-018 as reference
  Efficacy (Emax) Mean Diff: -0.07601
Human CB1 [1]; vs 25% MDMB-4en-PINACA, total concentration of SCRAs in mixture, JWH-018 as reference
  Efficacy (Emax) Mean Diff: 2.036
Human CB1 [1]; vs 50% MDMB-4en-PINACA, only concentration of final product in mixture, JWH-018 as reference
  Efficacy (Emax) Mean Diff: 9.030
Human CB1 [1]; vs 50% MDMB-4en-PINACA, total concentration of SCRAs in mixture, JWH-018 as reference
  Efficacy (Emax) Mean Diff: -0.07656
Human CB1 [1]; vs 75% MDMB-4en-PINACA, only concentration of final product in mixture, JWH-018 as reference
  Efficacy (Emax) Mean Diff: 6.745
Human CB1 [1]; vs 75% MDMB-4en-PINACA, total concentration of SCRAs in mixture, JWH-018 as reference
  Efficacy (Emax) Mean Diff: 9.029
Human CB1 [1]; vs 100% MDMB-4en-PINACA, only concentration of final product in mixture, JWH-018 as reference
  Efficacy (Emax) Mean Diff: 8.229
Human CB1 [1]; vs 100% MDMB-4en-PINACA, total concentration of SCRAs in mixture, JWH-018 as reference
  Efficacy (Emax) Mean Diff: 8.229
Human CB1 [2]; [12]
  Efficacy (Emax) Mean Diff: 550.8
Human CB1 [2]; [13]
  Efficacy (Emax) Mean Diff: 539.7
Human CB1 [2]; [14]
  Efficacy (Emax) Mean Diff: 569.4
Human CB1 [2]; [15]
  Efficacy (Emax) Mean Diff: 560.7
Human CB1 [2]; [16]
  Efficacy (Emax) Mean Diff: 558.2
Human CB1 [2]; [17]
  Efficacy (Emax) Mean Diff: 545.8
Human CB1 [2]; [18]
  Efficacy (Emax) Mean Diff: 521.9
Human CB1 [2]; [19]
  Efficacy (Emax) Mean Diff: 510.6
Human CB1 [2]; vs 100% MDMB-4en-PINACA, only concentration of final product in mixture
  Efficacy (Emax) Mean Diff: 536.7
Human CB1 [2]; vs 100% MDMB-4en-PINACA, total concentration of SCRAs in mixture
  Efficacy (Emax) Mean Diff: 536.7

## COC(=O)C(NC(=O)c1n[nH]c2ccccc12)C(C)(C)C (stereo not shown) [MDMB-INACA]
[3]
  Analgesic effects on paclitaxel-induced peripheral neuropathy: analgesic effects
Human CB1 [1]; [10]
  EC50: 11200 nM
Human CB1 [1]; Table 5, Seizure (precursor seized in Switzerland), read-out: Potency (EC50, nM) AequoScreen
  EC50: 7610 nM
Human CB1 [2]; [7]
  Efficacy (% of CP55,940) Emax β-arrestin 2: 294 % of CP55,940
Human CB1 [2]; [11]
  EC50: 2400 nM
Human CB1 [2]; Table 5, Seizure (precursor seized in Switzerland)
  Efficacy (% of CP55,940) Emax β-arrestin 2: 438 % of CP55,940
Human CB1 [2]; Table 5, Seizure (precursor seized in Switzerland), read-out: Potency (EC50, nM) β-arrestin 2
  EC50: 2190 nM

## C=CCCCn1nc(C(=O)N[C@H](C(=O)OC)C(C)(C)C)c2ccccc21 [100% MDMB-4en-PINACA]
Human CB1 [2]; [12]
  Efficacy (Emax) Mean Diff: -14.08
Human CB1 [2]; [13]
  Efficacy (Emax) Mean Diff: -3.010
Human CB1 [2]; [14]
  Efficacy (Emax) Mean Diff: -32.68
Human CB1 [2]; [15]
  Efficacy (Emax) Mean Diff: -24.05
Human CB1 [2]; [16]
  Efficacy (Emax) Mean Diff: -21.46
Human CB1 [2]; [17]
  Efficacy (Emax) Mean Diff: -9.133
Human CB1 [2]; [18]
  Efficacy (Emax) Mean Diff: 14.76
Human CB1 [2]; [19]
  Efficacy (Emax) Mean Diff: 26.09

## CC(C)(C)C(NC(=O)c1n[nH]c2ccccc12)C(N)=O (stereo not shown) [ADB-INACA]
[3]
  Analgesic effects on paclitaxel-induced peripheral neuropathy: analgesic effects
